Test results: PMC10251477, “Doubly Constrained C-terminal of Roc (COR) Domain-Derived Peptides Inhibit Leucine-Rich Repeat Kinase 2 (LRRK2) Dimerization” (ACS Chemical Neuroscience, 2023)
Values joined by “and” are separate entries in the source; they are usually repeats but may differ in a detail not shown here. Identical values can stand only once. Bridge positions count the residues as written; N and C are the ends. Square brackets hold non-standard residues; d marks the D form. Peptide text beside a SMILES is read from it. * marks the point of attachment. 5FAM = O=C1OC2(c3ccc(O)cc3Oc3cc(O)ccc32)c2ccc(C(=O)*)cc21; S5 = C=CCCC[C@](C)(N)C(=O)O; AEEEA = NCCOCCOCCOCC(=O)O

Columns and labels:
[1] = target: T1, LRRK2 G2019S homodimers in HEK293T cells (Homo sapiens, UniProt Q5S007, G2019S); experiment: Proximity biotinylation of dimeric LRRK2 in cells; format: cell-based; details: FAM-labeled peptide 0.5–2.5 μM, 48 h treatment, ELISA of biotinylated LRRK2 normalized to total LRRK2, biological triplicates
T1 construct: expressed in transfected cells; host or cells: HEK293T
Protocol: LRRK2 dimerization was assessed using either wild-type LRRK2 homodimers or LRRK2 G2019S homodimers. Experiments were carried out using various concentrations (0.5, μM, 1 μM, or 2.5 μM) of FAM-labeled ECOR or ECOR […]. The LRRK2 dimers used were purified as previously described.[18] To generate these dimers, two cDNAs encoding LRRK2 fusions with biotin ligase (BirA; N-term, Flag-tagged) or an acceptor peptide (AP, N-term; c-Myc tagged) were created. These constructs were expressed in HEK293T cells grown in biotin-depleted medium (OptiMEM+2% FBS). FAM-labeled ECO[…] and ECO[…] were diluted in serum-free medium and added 24 h after transfection. 48 h following the initial treatment (after 72 h of total expression), cells were washed in PBS, given a brief biotin pulse (50 μM, 5 min, 37 °C), washed three more times in PBS, and centrifuged. The cell pellet was snap frozen in a dry ice/methanol bath and stored at -80 °C until analysis. […] Protein-bound SA coated plates were incubated with HRP-conjugated anti-Flag antibodies for 1 h at room temperature to quantify dimeric LRRK2. Total LRRK2 overexpression was quantified using HRP-conjugated LRRK2 antibody (clone N241) on the parallel anti-LRRK2 coated plates (precoated with anti-LRRK2, clone c41-2) and was used to normalize dimeric LRRK2 content. […]

in vitro = in vitro ADME; details: human, cells or culture medium
Protocol: Fully confluent HEK293 cells were lysed using ice-cold nondenaturing lysis buffer (20 mM Tris HCL, pH 8.0, 137 mM NaCl, 1% Triton X-100, 2 mM EDTA) and incubated for 30 min at 4 °C. Cells were centrifuged for 20 min at 12 000 rpm, and the supernatant was collected and kept on ice. […] Experiments were conducted at 37 °C with agitation for 0, 2, 4, and 6 h. Aliquots were collected and quenched at each indicated time point using an equal volume of 0.1% trifluoroacetic acid (TFA) in acetonitrile. This solution was then centrifuged at 14 000 rpm for 5 min, and the supernatant was used for analysis. Peptide degradation was analyzed on LC-MS using a Zorbax Eclipse XDB-C18 column as a ratio of peptide to control relative to peptide at t = 0 at 280 nm. A flow rate of 1.0 mL/min at 45 °C was used with a 0–100% water/acetonitrile gradient containing 0.1% TFA. Each individual peptide was analyzed in triplicate for each time point.

[2] = test system: LRRK2 substrate Rab10 (phospho-T73) in A549 PPM1H knockout cells; experiment: Rab10 phosphorylation immunoblotting (LRRK2 kinase activity); format: cell-based; details: Western blot; for downregulation of Rab10 phosphorylation: 1 μM and 2.5 μM peptide (both concentrations), 6 h, pRab10 T73 over total Rab10, normalized to GAPDH and untreated control
Protocol: A549 PPM1H knockout cells were treated with 1 μM and 2.5 μM of doubly constrained peptide for 6 h. Cells treated with 1 μM MLi-2 were used as a positive control. Cell lysates were separated by SDS-PAGE and transferred to PVDF membranes by wet transfer. pRab10 T73 and total Rab10 signals were blotted on different membranes with GAPDH as a loading control on the same membrane to save the membrane from the stripping step. The membranes were blocked in nonfat milk and probed with Rab10 (phospho-T73) (Abcam; ab241060, Lot; GR327 4620-4), total Rab10 (Cell Signaling Technology; #4262S), and total GAPDH (14C10) (Cell Signaling Technology; #2118S) antibodies overnight at 4 °C, followed by incubation with HRP anti-rabbit secondary antibody, and developed using ECL. The blots were quantified using Image Studio Lite version 5.2 by selecting the bands to obtain the intensity for each band. The phospho-Rab10, total Rab10, and GAPDH signal for every sample were normalized to its untreated control for the same day. The phospho-Rab10 and total Rab10 signal was further normalized to the GAPDH signal (loading control) on the same blot. The graph was plotted with GAPDH normalized phospho-Rab10 signal over total Rab10 signal for every sample (*normalized to untreated sample). [drawing 1]

[3] = test system: GFP-LRRK2 in HEK293 cells; experiment: LRRK2 microtubule localization assay in live cells; format: cell-based; details: HEK293 cells overexpressing GFP-LRRK2 24 h, 37 °C, SiR-tubulin stain, live imaging
Protocol: HEK293 cells were transfected with GFP–LRRK2 for 24 h and subsequently treated with DMSO, 1 μM MLi-2, and 2.5 μM ECOR or ECOR A12G peptide for 6 h at 37 °C. The transfected cells were scored single-blinded for skein-like filamentous structures per condition. For tubulin staining, after a 6 h incubation with DMSO, MLi-2, or biotin-labeled peptides, the media was replaced with media containing 1 μM SiR-tubulin (Spirochrome SiR-tubulin Kit (SC002)) and 10 μM verapamil (a broad spectrum efflux pump inhibitor) for 1 h at 37 °C. Live cells were imaged using the 63× oil-immersion objective of a Zeiss LSM800 confocal laser scanning microscope. The Zeiss microscope software ZEN was used to generate channel overlays.

[4] = test system: primary cortical neurons expressing LRRK2 G2019S; experiment: Neuronal apoptosis in primary cortical neurons; format: cell-based; details: primary cortical neurons (E16 C57BL mice) transfected with Flag-LRRK2 G2019S; 0.5–1 μM peptide, 48 h; % Flag-positive neurons with apoptotic nuclei; three biological replicates
Protocol: Neurons were then transfected using Lipofectamine 2000 with Flag-tagged WT LRRK2 or G2019S LRRK2. The following day, neurons were treated with 0.5 μM and 1 μM of both ECO[…] and ECO[…] for 48 h. Cells were washed in PBS and fixed in 3.7% paraformaldehyde for 20 min at 4 °C prior to antibody treatments. Images were analyzed and quantifications were performed as previously described.[30] For the determination of apoptotic neuronal death, fixed and stained neurons were visualized under a 40× magnification objective (dry). On each coverslip, a minimum of 100 Flag-positive neurons were identified and the percentage of those with apoptotic profiles was determined. Apoptotic nuclei were defined as neurons having condensed chromatin, fragmented into at least 2 or more “apoptotic bodies”.

[5] = target: T2, purified full-length LRRK2 dimer (Homo sapiens, UniProt Q5S007); experiment: Mass photometry assay of LRRK2 dimerization; format: biochemical; details: LRRK2 at 75 nM and 100 nM, 7.5-fold excess of peptide, 30 min, 30 °C, three measurements
T2 construct: Purified full-length LRRK2 was incubated for 30 min; made in house
Protocol: LRRK2 was purified as previously described.[30] LRRK2 was diluted to a concentration of 150 nM or 200 nM and incubated with constrained peptide in a 1:7.5 ratio, for 30 min at 30 °C. Mass photometry was performed on a Refeyn Two^MP instrument.[30] The instrument was first focused with 10 μL of buffer (50 mM HEPES, 150 mM NaCl, 5 mM MgCl2, 1 mM DTT, 0.1 mM GDP, and 1% glycerol) after which 10 μL of the incubated LRRK2 solution was added. The samples were recorded for 1 min. Three measurements were processed for each condition, and the data were analyzed by GraphPad Prism.

MBP-tagged RocCOR LRRK2 = target: T3, MBP-tagged RocCOR LRRK2 (Homo sapiens, UniProt Q5S007); experiment: Fluorescence polarization (FP) binding assay, wild-type RocCOR; details: 10 nM FAM-labeled doubly stapled peptide, wild-type RocCOR 5 μM to 1 nM, 2 mM GTP, 10 mM MgCl2, 20 mM MOPS pH 7, 150 mM NaCl, 0.005% CHAPS, room temperature, 2 h, triplicate
T3 sequence (Q5S007 1328-1840 limits assumed): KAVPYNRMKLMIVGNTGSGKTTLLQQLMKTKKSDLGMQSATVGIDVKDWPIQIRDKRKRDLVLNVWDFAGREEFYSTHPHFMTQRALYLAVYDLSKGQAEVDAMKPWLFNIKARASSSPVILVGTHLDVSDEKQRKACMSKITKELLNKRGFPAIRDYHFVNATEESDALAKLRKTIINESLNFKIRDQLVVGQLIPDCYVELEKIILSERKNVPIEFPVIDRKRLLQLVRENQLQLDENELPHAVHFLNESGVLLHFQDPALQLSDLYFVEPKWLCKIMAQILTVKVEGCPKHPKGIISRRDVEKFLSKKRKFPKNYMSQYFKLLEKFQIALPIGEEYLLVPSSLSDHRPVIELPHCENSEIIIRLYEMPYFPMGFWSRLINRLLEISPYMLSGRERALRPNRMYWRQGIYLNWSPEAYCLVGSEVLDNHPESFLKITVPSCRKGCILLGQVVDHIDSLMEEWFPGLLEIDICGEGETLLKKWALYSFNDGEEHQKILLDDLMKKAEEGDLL
Protocol: Fluorescence polarization assays were conducted on the lead doubly constrained compounds (ECOR and ECOR A12G) with two separate LRRK2 protein constructs: MBP-tagged RocCOR LRRK2 and MBP-tagged R1441C RocCOR LRRK2, both in the presence of 2 mM GTP and 10 mM MgCl2. Protein/peptide interactions were measured in a FP buffer (20 mM MOPS, pH 7, 150 mM NaCl, and 0.005% CHAPS) at room temperature. FAM-labeled peptides were plated in 384-well microtiter plates at a final concentration of 10 nM. Proteins were added over concentrations ranging from 5 μM to 1 nM. Each protein/peptide interaction experiment was carried out at 10 different protein concentrations in triplicate. Each protein/peptide mixture was incubated at room temperature for 2 h and the final reading was performed at the end of this 2 h period.

[6] = 2.5 μM biotin-labeled peptide, 6 h, minimum 500 cells scored

T1 sequence (Q5S007 whole entry G2019S): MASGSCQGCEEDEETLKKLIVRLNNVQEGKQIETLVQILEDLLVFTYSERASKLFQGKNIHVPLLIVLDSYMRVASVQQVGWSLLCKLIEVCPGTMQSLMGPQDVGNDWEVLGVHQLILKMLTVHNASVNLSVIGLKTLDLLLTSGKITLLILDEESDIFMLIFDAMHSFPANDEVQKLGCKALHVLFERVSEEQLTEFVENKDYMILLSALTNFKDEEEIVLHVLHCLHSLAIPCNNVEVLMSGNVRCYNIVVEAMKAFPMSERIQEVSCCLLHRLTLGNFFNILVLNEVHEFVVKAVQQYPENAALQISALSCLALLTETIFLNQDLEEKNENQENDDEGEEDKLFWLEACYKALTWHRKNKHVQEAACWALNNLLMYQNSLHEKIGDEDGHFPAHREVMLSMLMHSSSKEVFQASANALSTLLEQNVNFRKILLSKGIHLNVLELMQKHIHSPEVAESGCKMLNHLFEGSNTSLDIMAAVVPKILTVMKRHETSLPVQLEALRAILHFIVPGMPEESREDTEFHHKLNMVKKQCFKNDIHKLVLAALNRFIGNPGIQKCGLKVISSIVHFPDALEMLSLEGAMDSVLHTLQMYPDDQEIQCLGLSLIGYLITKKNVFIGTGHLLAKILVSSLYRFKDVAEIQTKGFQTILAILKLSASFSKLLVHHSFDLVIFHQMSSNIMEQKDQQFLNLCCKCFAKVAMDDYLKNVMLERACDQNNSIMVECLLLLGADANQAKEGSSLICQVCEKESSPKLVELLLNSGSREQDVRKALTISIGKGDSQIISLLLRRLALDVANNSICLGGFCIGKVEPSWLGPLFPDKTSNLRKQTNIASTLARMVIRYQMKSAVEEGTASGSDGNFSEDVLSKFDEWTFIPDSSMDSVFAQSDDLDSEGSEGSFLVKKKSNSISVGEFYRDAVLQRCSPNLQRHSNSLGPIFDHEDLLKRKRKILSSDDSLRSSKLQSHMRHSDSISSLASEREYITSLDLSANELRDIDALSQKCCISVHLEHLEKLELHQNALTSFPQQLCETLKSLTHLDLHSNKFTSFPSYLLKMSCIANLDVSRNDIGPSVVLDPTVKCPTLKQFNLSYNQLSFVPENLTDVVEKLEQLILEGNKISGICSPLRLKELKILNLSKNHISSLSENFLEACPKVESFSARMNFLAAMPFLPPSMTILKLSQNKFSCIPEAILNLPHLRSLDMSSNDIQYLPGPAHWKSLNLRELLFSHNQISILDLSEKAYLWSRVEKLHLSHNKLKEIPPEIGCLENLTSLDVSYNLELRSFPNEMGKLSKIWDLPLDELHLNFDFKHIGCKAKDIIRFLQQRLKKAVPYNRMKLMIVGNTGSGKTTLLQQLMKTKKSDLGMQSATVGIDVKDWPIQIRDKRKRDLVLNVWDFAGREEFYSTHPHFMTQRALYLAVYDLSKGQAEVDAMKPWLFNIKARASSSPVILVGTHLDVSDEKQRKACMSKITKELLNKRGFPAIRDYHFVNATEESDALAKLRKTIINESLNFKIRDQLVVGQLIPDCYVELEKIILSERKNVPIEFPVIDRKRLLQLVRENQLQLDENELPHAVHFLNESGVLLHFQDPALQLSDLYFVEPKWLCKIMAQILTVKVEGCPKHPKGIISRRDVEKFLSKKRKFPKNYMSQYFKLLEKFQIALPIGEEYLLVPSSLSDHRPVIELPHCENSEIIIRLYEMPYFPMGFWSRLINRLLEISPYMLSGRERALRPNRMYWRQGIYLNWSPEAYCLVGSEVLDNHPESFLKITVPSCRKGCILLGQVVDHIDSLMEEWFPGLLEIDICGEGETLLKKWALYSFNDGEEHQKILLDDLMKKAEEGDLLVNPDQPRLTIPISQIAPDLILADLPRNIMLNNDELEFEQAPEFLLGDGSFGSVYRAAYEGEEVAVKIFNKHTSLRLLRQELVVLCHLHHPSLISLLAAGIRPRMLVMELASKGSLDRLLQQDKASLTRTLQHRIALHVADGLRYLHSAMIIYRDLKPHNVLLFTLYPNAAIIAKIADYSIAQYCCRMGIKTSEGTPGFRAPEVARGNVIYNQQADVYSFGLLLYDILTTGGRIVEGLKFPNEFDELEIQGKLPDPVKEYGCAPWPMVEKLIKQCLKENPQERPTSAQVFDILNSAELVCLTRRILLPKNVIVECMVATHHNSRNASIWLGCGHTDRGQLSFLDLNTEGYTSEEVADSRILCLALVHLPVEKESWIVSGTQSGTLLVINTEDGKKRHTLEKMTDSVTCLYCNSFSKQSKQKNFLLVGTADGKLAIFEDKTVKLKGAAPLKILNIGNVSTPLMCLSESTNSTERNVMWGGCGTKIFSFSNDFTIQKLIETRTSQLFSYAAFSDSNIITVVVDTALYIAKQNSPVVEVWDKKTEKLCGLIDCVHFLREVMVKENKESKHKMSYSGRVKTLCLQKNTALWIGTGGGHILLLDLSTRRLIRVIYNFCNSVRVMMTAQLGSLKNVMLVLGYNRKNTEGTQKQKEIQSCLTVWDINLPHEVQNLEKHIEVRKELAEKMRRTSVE
T2 sequence (Q5S007 whole entry): as the sequence (Q5S007 whole entry G2019S) above, with S2019G counted along it

Row | downregulation of intracellular LRRK2 G2019S dimerization [1] | remaining at 6 h, 0.2 mM (in vitro) [%] | inhibition of LRRK2 dimer formation [5] | Kd (MBP-tagged RocCOR LRRK2) | Compound | downregulation of Rab10 phosphorylation [2] | localization of LRRK2 to microtubules as filamentous skein-like structures [3, 6] | reduction of cortical neuronal apoptosis [4] | inhibition of Rab10 phosphorylation ([2]; 1 μM MLi-2 (positive control)) | localization of LRRK2 to microtubules as filamentous skein-like structures ([3]; 1 μM MLi-2, 6 h)
1 | 50–60% | > 80 | strongest dimer inhibition | 45 to 60 nM and 57 nM | CC(C)C[C@H](NC(=O)[C@H](CCCCN)NC(=O)[C@]1(C)CCCC=CCCC[C@](C)(NC(=O)[C@H](Cc2c[nH]cn2)NC(=O)[C@H](CCCCN)NC(=O)[C@H](CCC(=O)O)NC(=O)CNC(=O)[C@H](CC(=O)O)NC(=O)[C@H](CC(N)=O)NC(=O)[C@H](Cc2ccccc2)NC(=O)[C@H](CO)NC(=O)[C@H](Cc2ccc(O)cc2)NC(=O)[C@H](CC(C)C)NC(=O)CNC(=O)[C@H](Cc2c[nH]c3ccccc23)NC(=O)[C@]2(C)CCCC=CCCC[C@](C)(NC(=O)[C@H](CCC(=O)O)NC(=O)CNC(=O)[C@H](CCC(=O)O)NC(=O)CNC(=O)[C@H](CCCCN)NC(=O)COCCOCCOCCNC(=O)c3ccc4c(c3)C(=O)OC43c4ccc(O)cc4Oc4cc(O)ccc43)C(=O)N[C@@H](CC(C)C)C(=O)N[C@@H](CC(C)C)C(=O)N[C@@H](CCCCN)C(=O)N2)C(=O)N[C@@H](CCCCN)C(=O)N[C@@H](CCCCN)C(=O)N[C@@H](CC(C)C)C(=O)N1)C(N)=O [ECOR A12G] ({5FAM-AEEEA}-KGEGE[S5]LLK[S5]WGLYSFNDGEKH[S5]KKL[S5]KL-NH2; staple 6-10, 23-27) | ~40% | no significant localization | over 50% | – | –
2 | 50–60% | > 80 | – | 45 to 60 nM and 45 nM | CC(C)C[C@H](NC(=O)[C@H](CCCCN)NC(=O)[C@]1(C)CCCC=CCCC[C@](C)(NC(=O)[C@H](Cc2c[nH]cn2)NC(=O)[C@H](CCCCN)NC(=O)[C@H](CCC(=O)O)NC(=O)CNC(=O)[C@H](CC(=O)O)NC(=O)[C@H](CC(N)=O)NC(=O)[C@H](Cc2ccccc2)NC(=O)[C@H](CO)NC(=O)[C@H](Cc2ccc(O)cc2)NC(=O)[C@H](CC(C)C)NC(=O)[C@H](C)NC(=O)[C@H](Cc2c[nH]c3ccccc23)NC(=O)[C@]2(C)CCCC=CCCC[C@](C)(NC(=O)[C@H](CCC(=O)O)NC(=O)CNC(=O)[C@H](CCC(=O)O)NC(=O)CNC(=O)[C@H](CCCCN)NC(=O)COCCOCCOCCNC(=O)c3ccc4c(c3)C(=O)OC43c4ccc(O)cc4Oc4cc(O)ccc43)C(=O)N[C@@H](CC(C)C)C(=O)N[C@@H](CC(C)C)C(=O)N[C@@H](CCCCN)C(=O)N2)C(=O)N[C@@H](CCCCN)C(=O)N[C@@H](CCCCN)C(=O)N[C@@H](CC(C)C)C(=O)N1)C(N)=O [ECOR] ({5FAM-AEEEA}-KGEGE[S5]LLK[S5]WALYSFNDGEKH[S5]KKL[S5]KL-NH2; staple 6-10, 23-27) | not found to have measurable effects | no significant localization | over 50% | – | –
3 | – | – | – | – | C[C@@H]1CN(c2cc(-c3n[nH]c4ccc(OC5(C)CC5)cc34)ncn2)C[C@H](C)O1 [MLi-2, reference compound] | – | – | – | nearly completely inhibited | considerable colocalization with tubulin
